Results reported in US20080021026A1, “BENZOTHIOPHENE INHIBITORS OF RHO KINASE” (priority 2006, published 2008).
Where two headings read alike, the source gives them in different places.

Assays:
[1] = molecular target: T1, recombinant N-terminal GST-tagged human Rho kinase 1 (ROCK1, amino acids 1-535) (Homo sapiens, UniProt Q13464); experiment: In vitro Rho kinase assay (luciferase-based ATP consumption), ROCK1; type: biochemical
T1 construct: ROCK1, amino acids 1-535; purchased Invitrogen Inc. PV-3691
Outline: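 GST-ROCK1 (aa 1-535) at 0.82 μg/ml with 100 μg/ml S6 peptide and 3 µM ATP in Tris pH 7.5 buffer with MgCl2, CaCl2, EGTA, BSA; compound added after reaction start, 2 h at 30 °C. Remaining ATP read by luciferase luminescence; efficacy as percent of H-1152P positive control.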

[2] = molecular target: T2, recombinant N-terminal GST-tagged human Rho kinase 2 (ROCK2, amino acids 1-552) (Homo sapiens, UniProt O75116); experiment: In vitro Rho kinase assay (luciferase-based ATP consumption), ROCK2; type: biochemical
T2 construct: ROCK2, amino acids 1-552; purchased Invitrogen Inc. PV3759
Outline: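 GST-ROCK2 (aa 1-552, 0.82 μg/ml) with 100 μg/ml S6 peptide and 3 µM ATP in Tris pH 7.5 buffer with MgCl2/CaCl2/EGTA/BSA, compound added just after reaction start, 2 h at 30 °C. Remaining ATP read by luciferase luminescence. Efficacy expressed as percentage of H-1152P positive control.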

[3] = recombinant GST-tagged human ROCK1, luciferase-based ATP consumption, read-out: ROCK1 IC50
[4] = recombinant GST-tagged human ROCK2, luciferase-based ATP consumption, read-out: ROCK2 IC50

T1 sequence (Q13464 1-535): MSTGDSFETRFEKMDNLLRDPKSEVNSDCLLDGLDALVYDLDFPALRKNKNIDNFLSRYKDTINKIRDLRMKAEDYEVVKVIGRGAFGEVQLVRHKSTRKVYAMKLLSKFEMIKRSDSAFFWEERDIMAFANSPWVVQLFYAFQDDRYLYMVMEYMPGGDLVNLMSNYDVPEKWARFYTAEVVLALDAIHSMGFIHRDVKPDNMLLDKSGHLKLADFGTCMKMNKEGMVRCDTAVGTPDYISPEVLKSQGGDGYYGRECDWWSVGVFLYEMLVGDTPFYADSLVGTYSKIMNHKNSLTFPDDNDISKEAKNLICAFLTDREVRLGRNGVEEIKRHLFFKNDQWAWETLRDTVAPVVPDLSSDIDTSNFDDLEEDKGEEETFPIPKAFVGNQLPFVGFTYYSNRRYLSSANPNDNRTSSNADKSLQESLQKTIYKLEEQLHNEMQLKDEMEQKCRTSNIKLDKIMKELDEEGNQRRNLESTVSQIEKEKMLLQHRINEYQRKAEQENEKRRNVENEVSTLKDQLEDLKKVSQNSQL
T2 sequence (O75116 1-552): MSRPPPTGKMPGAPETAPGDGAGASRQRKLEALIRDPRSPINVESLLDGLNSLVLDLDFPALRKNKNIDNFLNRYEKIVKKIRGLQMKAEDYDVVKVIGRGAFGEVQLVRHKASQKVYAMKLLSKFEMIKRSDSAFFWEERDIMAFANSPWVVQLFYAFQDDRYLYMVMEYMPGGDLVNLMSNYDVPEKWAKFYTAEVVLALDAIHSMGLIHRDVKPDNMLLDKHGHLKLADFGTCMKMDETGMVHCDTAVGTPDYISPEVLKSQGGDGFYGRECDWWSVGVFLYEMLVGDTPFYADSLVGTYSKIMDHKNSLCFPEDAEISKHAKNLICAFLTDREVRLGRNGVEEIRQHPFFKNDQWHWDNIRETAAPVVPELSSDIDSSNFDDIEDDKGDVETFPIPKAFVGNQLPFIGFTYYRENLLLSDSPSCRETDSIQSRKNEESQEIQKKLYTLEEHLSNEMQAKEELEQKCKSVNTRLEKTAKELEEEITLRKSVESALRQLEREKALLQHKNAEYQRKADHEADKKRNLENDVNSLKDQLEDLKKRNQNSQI

IC50 [1, 3]	IC50 [2, 4]	Compound	IC50 ([1]; ROCK1 IC50, recombinant GST-tagged human ROCK1, luciferase-based ATP consumption)	IC50 ([2]; ROCK2 IC50, recombinant GST-tagged human ROCK2, luciferase-based ATP consumption)
< 5 µM	< 5 µM	Cc1c(-c2ccnc(N)n2)sc2ccc(CNC(=O)c3ccc(C(C)(C)C)cc3)cc12 [Example 204, Cc1c(sc2ccc(CNC(═O)c3ccc(cc3)C(C)(C)C)cc12)-c4ccnc(N)n4]		
< 5 µM	> 5 µM	Cc1c(C(=O)NCc2ccc3sc(-c4ccnc(N)n4)c(C)c3c2)oc2ccccc12 [Example 197, Cc1c(oc2ccccc12)C(═O)NCc3ccc4sc(c(C)c4c3)-c5ccnc(N)n5]		
> 5 µM	< 5 µM	Cc1c(-c2ccnc(N)n2)sc2ccc(CNC(=O)c3cscn3)cc12 [Example 116, Cc1c(sc2ccc(CNC(═O)c3cscn3)cc12)-c4ccnc(N)n4]		
> 5 µM	< 5 µM	Cc1c(-c2ccnc(N)n2)sc2ccc(CNC(=O)c3ccc(F)c(F)c3)cc12 [Example 157, Cc1c(sc2ccc(CNC(═O)c3ccc(F)c(F)c3)cc12)-c4ccnc(N)n4]		
< 5 µM	< 5 µM	COc1cc(OC)c(C(=O)NCc2ccc3sc(-c4ccnc(N)n4)c(C)c3c2)c(OC)c1 [Example 277, COc1cc(OC)c(C(═O)NCc2ccc3sc(c(C)c3c2)-c4ccnc(N)n4)c(OC)c1]		
> 5 µM	< 5 µM	Cc1cccc(C(=O)NCc2ccc3sc(-c4ccnc(N)n4)c(C)c3c2)c1O [Example 139, Cc1cccc(C(═O)NCc2ccc3sc(c(C)c3c2)-c4ccnc(N)n4)c1O]		
< 5 µM	< 5 µM	CC(=O)Nc1cccc(NC(=O)c2ccc3sc(-c4ccnc(N)n4)c(C)c3c2)c1 [Example 20, N-(3-Acetamidophenyl)-2-(2-aminopyrimidin-4-yl)-3-methylbenzo[b]thiophene-5-carboxamide]		
< 5 µM	< 5 µM	Cc1c(-c2ccnc(N)n2)sc2ccc(Cc3cccc(C(=O)Nc4ccc(OCCN5CCCCC5)cc4)c3)cc12 [Example 44, 3-((2-(2-Aminopyrimidin-4-yl)-3-methylbenzo[b]thiophen-5-yl)methyl)-N-(4-(2-(piperidin-1-yl)ethoxy)phenyl)benzamide]		
< 5 µM	> 5 µM	CCC(C)C(NC(=O)OC(C)(C)C)C(=O)NCc1ccc2sc(-c3ccnc(N)n3)c(C)c2c1 (centres unmarked) [Example 322, CCC(C)[C](NC(═O)OC(C)(C)C)C(═O)NCc1ccc2sc(c(C)c2c1)-c3ccnc(N)n3]		
< 5 µM	< 5 µM	Cc1c(-c2ccnc(N)n2)sc2ccc(CNC(=O)c3cc4cc(Cl)ccc4o3)cc12 [Example 258, Cc1c(sc2ccc(CNC(═O)c3cc4cc(Cl)ccc4o3)cc12)-c5ccnc(N)n5]		
		Cc1c(-c2ccnc(N)n2)sc2ccc(CNC(=O)C=Cc3ccccc3Cl)cc12 [Example 225, Cc1c(sc2ccc(CNC(═O)C═Cc3ccccc3Cl)cc12)-c4ccnc(N)n4]	> 5 µM	< 5 µM
> 5 µM	< 5 µM	Cc1c(-c2ccnc(N)n2)sc2ccc(CNC(=O)c3csc4ccccc34)cc12 [Example 201, Cc1c(sc2ccc(CNC(═O)c3csc4ccccc34)cc12)-c5ccnc(N)n5]		
> 5 µM	< 5 µM	CC(=O)NCC(=O)NCc1ccc2sc(-c3ccnc(N)n3)c(C)c2c1 [Example 107, CC(═O)NCC(═O)NCc1ccc2sc(c(C)c2c1)-c3ccnc(N)n3]		
< 5 µM	< 5 µM	Cc1c(-c2ccnc(N)n2)sc2ccc(CNC(=O)c3ccccc3C(F)(F)F)cc12 [Example 243, Cc1c(sc2ccc(CNC(═O)c3ccccc3C(F)(F)F)cc12)-c4ccnc(N)n4]		
> 5 µM	< 5 µM	Cc1ccc(F)cc1C(=O)NCc1ccc2sc(-c3ccnc(N)n3)c(C)c2c1 [Example 146, Cc1ccc(F)cc1C(═O)NCc2ccc3sc(c(C)c3c2)-c4ccnc(N)n4]		
> 5 µM	> 5 µM	Cc1c(-c2ccnc(N)n2)sc2ccc(CNC(=O)c3cccc(Oc4ccccc4)c3)cc12 [Example 282, Cc1c(sc2ccc(CNC(═O)c3cccc(Oc4ccccc4)c3)cc12)-c5ccnc(N)n5]		
< 5 µM	< 5 µM	Cc1c(-c2ccnc(N)n2)sc2ccc(CNC(=O)CCc3cccc(C(F)(F)F)c3)cc12 [Example 294, Cc1c(sc2ccc(CNC(═O)CCc3cccc(c3)C(F)(F)F)cc12)-c4ccnc(N)n4]		
> 5 µM	< 5 µM	Cc1ccccc1C(=O)NCc1ccc2sc(-c3ccnc(N)n3)c(C)c2c1 [Example 119, Cc1ccccc1C(═O)NCc2ccc3sc(c(C)c3c2)-c4ccnc(N)n4]		
> 5 µM	> 5 µM	COc1cccc(CCc2ccc3sc(-c4ccnc(N)n4)c(C)c3c2)c1 [Example 90, 4-(5-(3-Methoxyphenethyl)-3-methylbenzo[b]thiophen-2-yl)pyrimidin-2-amine]		
> 5 µM	< 5 µM	Cc1c(-c2ccnc(N)n2)sc2ccc(CNC(=O)c3cc(Cl)ccc3O)cc12 [Example 191, Cc1c(sc2ccc(CNC(═O)c3cc(Cl)ccc3O)cc12)-c4ccnc(N)n4]		
> 5 µM	< 5 µM	COC(=O)c1cccc(Cc2ccc3sc(-c4ccnc(N)n4)c(C)c3c2)c1 [Example 42, Methyl 3-((2-(2-aminopyrimidin-4-yl)-3-methylbenzo[b]thiophen-5-yl)methyl)benzoate]		
> 5 µM	< 5 µM	COc1cc(C(=O)NCc2ccc3sc(-c4ccnc(N)n4)c(C)c3c2)cc(OC)c1O [Example 260, COc1cc(cc(OC)c1O)C(═O)NCc2ccc3sc(c(C)c3c2)-c4ccnc(N)n4]		
< 5 µM	< 5 µM	Cc1c(-c2ccnc(N)n2)sc2ccc(CNC(=O)c3cccs3)cc12 [Example 34, N-((2-(2-Aminopyrimidin-4-yl)-3-methylbenzo[b]thiophen-5-yl)methyl)thiophene-2-carboxamide]		
< 5 µM	< 5 µM	COc1nccc(Nc2ccc3sc(-c4ccnc(N)n4)c(C)c3c2)n1 [Example 74, 4-(5-(2-Methoxypyrimidin-4-ylamino)-3-methylbenzo[b]thiophen-2-yl)pyrimidin-2-amine]		
> 5 µM	< 5 µM	Cc1c(-c2ccnc(N)n2)sc2ccc(CNC(=O)C=Cc3ccc(Cl)cc3)cc12 [Example 224, Cc1c(sc2ccc(CNC(═O)C═Cc3ccc(Cl)cc3)cc12)-c4ccnc(N)n4]		
< 5 µM	< 5 µM	Cc1c(-c2ccnc(N)n2)sc2ccc(CNC(=O)C(C)c3ccc(O)cc3)cc12 (centres unmarked) [Example 178, CC(C(═O)NCc1ccc2sc(c(C)c2c1)-c3ccnc(N)n3)c4ccc(O)cc4]		
< 5 µM	> 5 µM	Cc1c(-c2ccnc(N)n2)sc2ccc(CNC(=O)c3ccccc3Oc3ccccc3)cc12 [Example 283, Cc1c(sc2ccc(CNC(═O)c3ccccc3Oc4ccccc4)cc12)-c5ccnc(N)n5]		
> 5 µM	> 5 µM	Cc1cccc(C(=O)NCc2ccc3sc(-c4ccnc(N)n4)c(C)c3c2)c1 [Example 118, Cc1cccc(c1)C(═O)NCc2ccc3sc(c(C)c3c2)-c4ccnc(N)n4]		
< 5 µM	< 5 µM	Cc1c(-c2ccnc(N)n2)sc2ccc(CNC(=O)c3ccc(Cl)c(Br)c3)cc12 [Example 315, Cc1c(sc2ccc(CNC(═O)c3ccc(Cl)c(Br)c3)cc12)-c4ccnc(N)n4]		
> 5 µM	> 5 µM	COc1ccc(Cc2ccc3sc(-c4ccnc(N)n4)c(C)c3c2)cc1 [Example 25, 4-(5-(4-Methoxybenzyl)-3-methylbenzo[b]thiophen-2-yl)pyrimidin-2-amine]		

Compound	IC50 [1, 3]	IC50 [2, 4]	IC50 ([1]; ROCK1 IC50, recombinant GST-tagged human ROCK1, luciferase-based ATP consumption)	IC50 ([2]; ROCK2 IC50, recombinant GST-tagged human ROCK2, luciferase-based ATP consumption)
CCCCc1ccc(C(=O)NCc2ccc3sc(-c4ccnc(N)n4)c(C)c3c2)cc1 [Example 203, CCCCc1ccc(cc1)C(═O)NCc2ccc3sc(c(C)c3c2)-c4ccnc(N)n4]	> 5 µM	> 5 µM		
